Source: patent US20140163096A1, “METHODS AND COMPOSITIONS FOR TREATING HIV-ASSOCIATED DIARRHEA” (priority 2012, published 2014)

Assays:
[1] = system: mice; assay: 13-week oral toxicity study in mice; conditions: mouse, in vivo
Procedure: One additional group of 15 animals/sex served as the control and received the vehicle, purified water.
Observations for morbidity, mortality, injury, and the availability of food and water were conducted twice daily for all animals. Detailed clinical observations for clinical signs were conducted weekly on all main study animals. Body weights were measured and recorded weekly on all animals. Food consumption was measured and recorded weekly on all main study animals. Ophthalmoscopic examinations were conducted pretest and prior to necropsy for all main study animals. Blood samples for clinical pathology evaluations were collected from main study animals in extremis and at termination. […] Beginning on Day 7, a limited gross necropsy examination was performed on any TK animal euthanized in extremis or found dead in an effort to determine the cause of death.

[2] = system: HIV-positive patients; conditions: human, in vivo
[3] = system: rat bone marrow; conditions: in vivo
[4] = Bacterial reverse mutation assay
[5] = human, in vivo; cited from earlier work

Substance: Crofelemer
- clinical pathology, organ weight, and macroscopic effects [1]: observed in both sexes at 1200 mg/kg/day
- food consumption effects [1]: evident at 40 mg/kg/day in females and ≧400 mg/kg/day in both sexes
- adverse events reported in greater than or equal to 1% and less than 2% of patients, at a higher incidence than placebo [2]: dizziness, muscle spasms, myalgia, and pain in extremity
- adverse reactions in patients who received doses greater than 250 mg daily [2]: similar
- safety profile by baseline CD4 cell count [2]: similar
- rat bone marrow micronucleus assay result [3]: negative
- bacterial reverse mutation assay result [4]: negative
- systemic bioavailability [5]: virtually no systemic bioavailability
